Experimental data taken from patent US20090029957A1, “8-BETA-SUBSTITUTED ESTRATRIENES AS SELECTIVELY ACTIVE ESTROGENS” (priority 2007, published 2009).
Read-outs that look alike come from different tables or passages of the source.

Experiments:
[1] = test system: hERβ; settings: cited from earlier work
[2] = test system: hERβ; test: Relative binding affinity to hERβ (Kuiper et al.); parameters: species or system human; settings: quotient of RBA hERβ to hERα
Excerpt: (§1) In this case, it is assumed that ERβ predominates in the rat prostates over ERα, and ERα predominates in rat uteri over ERβ.

[3] = test system: estrogen receptor preparations from rat uteri; test: Competitive 3H-estradiol binding, rat uterus cytosol estrogen receptor; settings: 3H-estradiol as ligand
Excerpt: as §1

[4] = test system: estrogen receptor preparations from rat prostates; test: Competitive 3H-estradiol binding, rat prostate cytosol estrogen receptor; settings: for Rat prost. ER(RBA): 3H-estradiol as ligand; for prost. ER/uterus ER: ratio of RBA rat prostate ER to rat uterus ER
Excerpt: as §1

[5] = test system: adult female rats; test: Dissociation of action of the uterus and pituitary gland (uterus growth and ovulation); format: in vivo, rat; settings: s.c., four times on four consecutive days
Description: The studies with respect to the action on uterus growth and ovulation (indirect effect by influencing the secretion of pituitary gland hormones) are performed on adult female rats (body weight of 220-250 g). The substances are subcutaneously administered four times on four consecutive days. The first administration is carried out in the metestrus. One day after the last administration, the autopsy is carried out. The number of oocytes in the Fallopian tube (effect on the ovulation) as well as the uterus weight are determined.

SMILES	Rat uterus ER(RBA) ([3]; Table 1, estradiol = 100)	Rat prost. ER(RBA) ([4]; Table 1, estradiol = 100)	Rat uterus ER(RBA) ([3]; Table 2)	Rat prost. ER(RBA) ([4]; Table 2)	prost. ER/uterus ER ([4]; Table 2)	other results
C[C@]12CC[C@H](O)CC1=CCC1C2CC[C@@]2(C)C1CC[C@@H]2O (stereo partly drawn) [5-Andro-stene-diol]	0.1	5	–	–	–	hERβ RBA* [1]: 17; ERβ/ERα [2]: 3; prost. ER/uterus ER ([4]; Table 1): 50
C=C[C@@]12CCc3cc(O)ccc3[C@H]1CC[C@@]1(C)[C@H]2C[C@@H](F)[C@@H]1O [Compound 1, 8β-Vinyl-estra-1,3,5(10)-16α-fluoro-3,17β-diol]	–	–	1.7	167	98	–
C=C[C@@]12CCc3cc(O)ccc3[C@H]1CC[C@@]1(C)[C@H]2CC[C@@H]1O [Compound 2, 8β-Vinyl-estra-1,3,5(10)-3,17β-diol]	–	–	0.7	63	90	–
C[C@]12CCC3c4ccc(O)cc4CCC3C1CC[C@@H]2O (stereo partly drawn) [Estradiol]	100	100	–	–	–	ED50, dose-dependent ovulation inhibition and increase in uterus weight [5]: 0.004 mg/kg of body weight
C[C@]12CC[C@@H]3c4ccc(O)cc4CC[C@H]3[C@@H]1C[C@@H](O)[C@@H]2O [Estriol]	–	–	–	–	–	hERβ RBA* ([1]; relative binding affinity, estradiol = 100, cited from Kuiper et al.): 21
